Structures are written as SMILES. pIC50: −log10 of the molar value.

The test has as its target T1, human IBAT (Homo sapiens, UniProt Q12908).
T1 construct: Bases 599 to 1645 correspond to the complete coding region of human IBAT; expressed in transfected cells
T1 sequence (Q12908 1-348): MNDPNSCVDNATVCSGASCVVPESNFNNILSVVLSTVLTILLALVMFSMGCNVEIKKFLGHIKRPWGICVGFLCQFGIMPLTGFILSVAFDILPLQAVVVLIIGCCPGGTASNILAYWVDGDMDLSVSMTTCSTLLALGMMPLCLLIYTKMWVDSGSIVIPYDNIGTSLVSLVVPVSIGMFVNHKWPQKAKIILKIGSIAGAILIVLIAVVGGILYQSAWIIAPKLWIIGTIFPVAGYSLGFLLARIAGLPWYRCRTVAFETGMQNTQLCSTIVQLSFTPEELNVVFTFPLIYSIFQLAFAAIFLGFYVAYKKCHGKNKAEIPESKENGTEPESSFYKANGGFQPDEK
The experiment in a line: In vitro IBAT inhibition assay: IBAT-dependent uptake of [3H]-taurocholic acid into CHO-hIBAT cells. Type of test: cell-based. To be noted: 10 μM taurocholic acid, 60 min at room temperature, read-out: IC-50 (human IBAT). The source says: Preparation and Procedure for the In Vitro IBAT Inhibition Assay:
1. Cloning of an Expression Vector for Human IBAT
The cDNA (complementary deoxyribonucleic acid) of human IBAT was cloned by standard methods of molecular biology as described for example in Molecular Cloning: A Laboratory Manual by Joseph Sambrook and David Russell, and introduced into the pcDNA1 vector from Invitrogen. […] Bases 599 to 1645 correspond to the complete coding region of human IBAT.
2. Preparation of a Recombinant Cell Line with Constitutive Expression of Human IBAT
The expression vector for human IBAT was introduced by stable transfection into CHO (chinese hamster ovary) cells. To select single cell clones, 400 μg/ml Geneticin was added to the cell culture medium (Ham's F12 medium supplemented with 10% fetal calf serum, 100 units/ml penicillin, 100 units/ml streptomycin). The functionality of the single cell clones resulting from the selection was assayed via their uptake activity for radiolabeled taurocholic acid ([^3H]-TCA). The cell clone with the highest uptake activity for [^3H]-TCA, referred to hereinafter as CHO-hIBAT, was selected for the further assays and further cultured in the presence of 400 μg/ml Geneticin.
3. Measurement of The Inhibitory Effect of The Compound of The Invention on The IBAT-Dependent Uptake of Taurocholic Acid into Cells
CHO-hIBAT cells were seeded in a concentration of 40 000 cells per well in poly-D-lysine-coated 96-well plates in cell culture medium and cultured for 24 h. The cells were then washed once with sodium-free transport assay buffer (140 mM choline chloride, 2 mM potassium chloride, 1 mM magnesium chloride, 1 mM calcium chloride, 10 mM HEPES/Tris, pH 7.5) and subsequently incubated either with sodium-free transport assay buffer as negative control or with sodium-containing transport assay buffer (140 mM sodium chloride, 2 mM potassium chloride, 1 mM magnesium chloride, 1 mM calcium chloride, 10 mM HEPES/Tris, pH 7.5) as positive control at room temperature for 30 min. At the same time, the assay wells were also incubated in the presence of the compound to be investigated in varying concentration in sodium-containing transport assay buffer at room temperature for 30 min. The test substances were appropriately diluted in transport assay buffer (40 μl/well) starting from a 10 mM stock solution in dimethyl sulfoxide. The assay was then started by adding 10 μl/well of a mixture of radiolabeled taurocholic acid ([^3H]-TCA) and unlabeled taurocholic acid. The final concentration of taurocholic acid in the assay was 10 μM. After an incubation time of 60 min at room temperature, the reaction was stopped by adding 100 μl/well of sodium-free transport assay buffer (4° C.), and each well was washed three times with sodium-free transport assay buffer. Finally, 100 μl of scintillation fluid were added to each well, and the radioactivity taken up into the cells was determined in a MicroBeta Scintillation Microplate Reader from Wallac.
The half-maximum inhibitory effect of the test compound (IC50 value, inhibitory concentration 50) was determined in the following way: • 1. Determination of the value for 0% inhibition. This is the measurement in the absence of substance, measured in sodium-containing transport assay buffer. • 2. Determination of the value for 100% inhibition. This is the measurement in the absence of substance, measured in sodium-free transport assay buffer. • 3. Calculation of the percentage inhibitions of those measurements carried out in the presence of various concentrations of the compound to be investigated. It was then possible to find therefrom the concentration of the compound which reduces the uptake of taurocholic acid by 50% (IC50 value).

On to `CCCC[C@]1(CC)CS(=O)(=O)c2ccc(N(C)C)cc2[C@@H](c2cccc(NC(=O)N[C@@H]3O[C@H](CO)[C@@H](O)[C@H](OCc4ccccc4)[C@H]3O)c2)[C@H]1O` [Example 1], for which the pIC50 is 8.36. In the case of `CCCCC1(CCCC)CS(=O)(=O)c2ccc(N(C)C)cc2[C@@H](c2cccc(NC(=O)N[C@@H]3O[C@H](CO)[C@@H](O)[C@H](OCc4ccccc4)[C@H]3O)c2)[C@H]1O` [Example 2] it was 8.16.

For the molecule `CCCC[C@]1(CC)CS(=O)(=O)c2ccc(N(C)C)cc2[C@@H](c2cccc(NC(=O)N[C@@H]3O[C@H](COCc4ccccc4)[C@@H](O)[C@H](OCc4ccccc4)[C@H]3O)c2)[C@H]1O` [Example 3], the pIC50 was 8.46. The same measure for `CCCC[C@]1(CC)CS(=O)(=O)c2ccc(N(C)C)cc2[C@@H](c2cccc(NC(=O)N[C@@H]3O[C@H](COS(=O)(=O)O)[C@@H](O)[C@H](OCc4ccccc4)[C@H]3O)c2)[C@H]1O` [Example 4]: 8.62; for `CCCC[C@]1(CC)CS(=O)(=O)c2ccc(N(C)C)cc2[C@@H](c2cccc(NC(=O)N[C@@H]3O[C@H](COS(=O)(=O)O)[C@@H](OS(=O)(=O)O)[C@H](OCc4ccccc4)[C@H]3O)c2)[C@H]1O` [Example 5]: 8.70. The same measure for `CCCCC1(CCCC)CS(=O)(=O)c2ccc(N(C)C)cc2[C@@H](c2cccc(NC(=O)N[C@@H]3O[C@H](COS(=O)(=O)O)[C@@H](O)[C@H](OCc4ccccc4)[C@H]3O)c2)[C@H]1O` [Example 6]: 7.97.
